Test results taken from ChEMBL document CHEMBL5291721, “A preclinical secondary pharmacology resource illuminates target-adverse drug reaction associations of marketed drugs” (Nat Commun, 2023).

Key:
[1] = molecular target: T1, Alpha-1A adrenergic receptor (Homo sapiens, UniProt P35348); format: functional, cell-based
T1 sequence (P35348 whole entry): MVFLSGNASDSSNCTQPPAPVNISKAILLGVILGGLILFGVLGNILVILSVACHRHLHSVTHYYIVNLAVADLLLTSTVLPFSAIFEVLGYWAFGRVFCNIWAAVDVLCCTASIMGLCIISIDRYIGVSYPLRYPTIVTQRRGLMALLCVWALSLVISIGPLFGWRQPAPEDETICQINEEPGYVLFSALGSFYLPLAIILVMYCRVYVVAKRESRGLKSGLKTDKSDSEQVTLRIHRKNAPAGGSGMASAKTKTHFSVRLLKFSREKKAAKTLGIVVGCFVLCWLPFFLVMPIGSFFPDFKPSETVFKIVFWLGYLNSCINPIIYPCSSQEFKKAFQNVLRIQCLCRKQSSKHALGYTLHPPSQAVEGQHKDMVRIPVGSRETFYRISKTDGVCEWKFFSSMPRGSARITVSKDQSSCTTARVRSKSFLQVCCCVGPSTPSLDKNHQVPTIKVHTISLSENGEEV

[2] = molecular target: Histamine H3 receptor (Homo sapiens, UniProt Q9Y5N1)
Histamine H3 receptor, sequence (Q9Y5N1 whole entry): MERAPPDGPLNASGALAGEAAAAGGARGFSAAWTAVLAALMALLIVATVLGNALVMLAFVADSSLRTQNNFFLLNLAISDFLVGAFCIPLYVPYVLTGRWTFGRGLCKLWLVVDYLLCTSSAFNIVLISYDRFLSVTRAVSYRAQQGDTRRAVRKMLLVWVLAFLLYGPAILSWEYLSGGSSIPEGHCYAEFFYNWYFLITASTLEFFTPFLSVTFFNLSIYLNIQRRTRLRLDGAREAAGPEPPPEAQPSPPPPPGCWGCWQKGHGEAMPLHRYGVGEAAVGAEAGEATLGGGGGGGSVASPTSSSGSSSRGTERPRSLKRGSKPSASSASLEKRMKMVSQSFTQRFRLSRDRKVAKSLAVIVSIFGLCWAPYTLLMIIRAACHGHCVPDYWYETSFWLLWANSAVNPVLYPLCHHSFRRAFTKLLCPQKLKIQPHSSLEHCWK

[3] = molecular target: 5-hydroxytryptamine receptor 2B (Homo sapiens, UniProt P41595); format: functional, cell-based
5-hydroxytryptamine receptor 2B, sequence (P41595 whole entry): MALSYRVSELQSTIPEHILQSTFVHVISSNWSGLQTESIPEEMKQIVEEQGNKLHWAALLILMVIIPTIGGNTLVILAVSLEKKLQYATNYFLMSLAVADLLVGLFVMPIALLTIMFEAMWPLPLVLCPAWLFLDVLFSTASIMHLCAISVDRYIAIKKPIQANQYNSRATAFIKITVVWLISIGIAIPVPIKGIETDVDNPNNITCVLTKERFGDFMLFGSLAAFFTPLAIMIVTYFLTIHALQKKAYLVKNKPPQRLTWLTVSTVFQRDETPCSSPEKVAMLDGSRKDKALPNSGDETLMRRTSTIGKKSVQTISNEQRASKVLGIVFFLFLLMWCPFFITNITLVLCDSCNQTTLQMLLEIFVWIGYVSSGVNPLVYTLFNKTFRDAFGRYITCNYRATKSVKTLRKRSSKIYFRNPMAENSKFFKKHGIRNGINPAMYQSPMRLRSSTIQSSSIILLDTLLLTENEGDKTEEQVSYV

[4] = molecular target: T2, Progesterone receptor (Homo sapiens, UniProt P06401)
T2 sequence (P06401 whole entry): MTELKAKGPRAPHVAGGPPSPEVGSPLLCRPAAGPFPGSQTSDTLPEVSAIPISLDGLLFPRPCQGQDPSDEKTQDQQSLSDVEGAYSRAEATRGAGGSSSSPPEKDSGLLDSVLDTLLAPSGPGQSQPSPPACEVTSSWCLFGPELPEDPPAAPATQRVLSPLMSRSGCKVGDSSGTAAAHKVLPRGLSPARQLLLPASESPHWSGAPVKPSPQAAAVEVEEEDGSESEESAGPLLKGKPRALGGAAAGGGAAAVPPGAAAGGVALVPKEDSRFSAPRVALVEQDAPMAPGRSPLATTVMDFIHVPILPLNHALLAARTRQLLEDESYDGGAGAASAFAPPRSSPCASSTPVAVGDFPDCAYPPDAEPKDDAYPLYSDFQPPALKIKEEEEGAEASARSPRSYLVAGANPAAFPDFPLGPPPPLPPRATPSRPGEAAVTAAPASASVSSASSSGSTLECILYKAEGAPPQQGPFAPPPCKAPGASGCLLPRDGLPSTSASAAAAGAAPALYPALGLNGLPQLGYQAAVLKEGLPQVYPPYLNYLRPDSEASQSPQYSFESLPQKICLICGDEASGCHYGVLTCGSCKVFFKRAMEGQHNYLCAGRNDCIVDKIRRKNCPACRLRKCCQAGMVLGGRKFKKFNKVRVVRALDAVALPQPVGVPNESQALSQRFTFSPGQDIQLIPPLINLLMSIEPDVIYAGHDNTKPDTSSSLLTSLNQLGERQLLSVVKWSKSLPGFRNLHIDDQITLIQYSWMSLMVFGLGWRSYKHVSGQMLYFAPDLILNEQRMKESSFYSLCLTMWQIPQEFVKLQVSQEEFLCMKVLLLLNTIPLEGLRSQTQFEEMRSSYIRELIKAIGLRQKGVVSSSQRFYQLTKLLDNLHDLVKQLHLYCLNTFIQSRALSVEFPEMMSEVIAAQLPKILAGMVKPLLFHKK

[5] = molecular target: Sodium-dependent serotonin transporter (Homo sapiens, UniProt P31645)
Sodium-dependent serotonin transporter, sequence (P31645 whole entry): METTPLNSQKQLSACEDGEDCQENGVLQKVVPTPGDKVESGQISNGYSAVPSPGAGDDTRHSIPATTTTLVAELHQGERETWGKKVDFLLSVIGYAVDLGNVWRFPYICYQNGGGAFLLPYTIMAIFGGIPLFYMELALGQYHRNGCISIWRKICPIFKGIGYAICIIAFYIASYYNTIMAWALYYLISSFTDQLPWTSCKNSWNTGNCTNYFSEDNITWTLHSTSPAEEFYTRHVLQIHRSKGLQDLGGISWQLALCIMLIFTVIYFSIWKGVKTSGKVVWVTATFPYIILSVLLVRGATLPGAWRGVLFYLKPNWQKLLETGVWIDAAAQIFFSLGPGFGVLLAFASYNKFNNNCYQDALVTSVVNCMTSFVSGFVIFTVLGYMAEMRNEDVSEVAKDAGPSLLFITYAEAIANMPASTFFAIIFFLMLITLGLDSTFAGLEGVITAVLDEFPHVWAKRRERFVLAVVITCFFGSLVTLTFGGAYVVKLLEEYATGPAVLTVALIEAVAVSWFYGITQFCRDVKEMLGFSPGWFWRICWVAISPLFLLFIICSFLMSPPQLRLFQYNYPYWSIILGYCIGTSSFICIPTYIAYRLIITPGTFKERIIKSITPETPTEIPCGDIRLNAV

[6] = molecular target: T3, Thromboxane A2 receptor (Homo sapiens, UniProt P21731); format: functional, cell-based
T3 sequence (P21731 whole entry): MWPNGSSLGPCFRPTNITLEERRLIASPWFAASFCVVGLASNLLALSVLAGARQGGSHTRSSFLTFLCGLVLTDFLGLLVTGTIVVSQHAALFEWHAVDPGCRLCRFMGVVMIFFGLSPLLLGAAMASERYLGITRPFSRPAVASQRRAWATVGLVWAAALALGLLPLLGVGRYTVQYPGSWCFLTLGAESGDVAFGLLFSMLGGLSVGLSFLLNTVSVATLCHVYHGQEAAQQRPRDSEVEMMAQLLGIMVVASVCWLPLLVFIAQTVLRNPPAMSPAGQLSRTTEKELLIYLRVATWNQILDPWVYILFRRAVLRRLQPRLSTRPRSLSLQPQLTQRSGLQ

[7] = molecular target: Beta-1 adrenergic receptor (Homo sapiens, UniProt P08588); format: functional
Beta-1 adrenergic receptor, sequence (P08588 whole entry): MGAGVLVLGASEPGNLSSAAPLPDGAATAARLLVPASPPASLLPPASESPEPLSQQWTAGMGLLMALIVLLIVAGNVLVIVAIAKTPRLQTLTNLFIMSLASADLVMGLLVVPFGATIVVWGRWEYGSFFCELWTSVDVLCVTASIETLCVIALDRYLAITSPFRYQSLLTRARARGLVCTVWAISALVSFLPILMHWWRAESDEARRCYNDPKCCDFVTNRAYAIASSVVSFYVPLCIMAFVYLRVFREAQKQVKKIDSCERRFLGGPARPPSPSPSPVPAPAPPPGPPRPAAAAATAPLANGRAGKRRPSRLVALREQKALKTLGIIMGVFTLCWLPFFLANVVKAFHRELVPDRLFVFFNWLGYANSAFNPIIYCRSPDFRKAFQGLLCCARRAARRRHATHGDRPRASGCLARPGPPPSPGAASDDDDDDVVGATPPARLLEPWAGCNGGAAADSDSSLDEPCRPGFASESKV

[8] = molecular target: T4, B2 bradykinin receptor (Homo sapiens, UniProt P30411)
T4 sequence (P30411 whole entry): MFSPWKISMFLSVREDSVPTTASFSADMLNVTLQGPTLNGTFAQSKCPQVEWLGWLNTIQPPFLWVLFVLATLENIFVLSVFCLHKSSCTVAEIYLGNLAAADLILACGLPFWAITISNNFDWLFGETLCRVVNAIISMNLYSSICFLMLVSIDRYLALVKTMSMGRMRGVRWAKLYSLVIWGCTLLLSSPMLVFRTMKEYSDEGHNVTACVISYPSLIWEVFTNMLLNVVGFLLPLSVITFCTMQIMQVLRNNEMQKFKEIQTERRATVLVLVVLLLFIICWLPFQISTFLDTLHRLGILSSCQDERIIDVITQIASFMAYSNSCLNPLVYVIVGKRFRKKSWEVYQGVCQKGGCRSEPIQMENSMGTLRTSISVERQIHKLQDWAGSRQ

[9] = molecular target: T5, Endothelin-1 receptor (Homo sapiens, UniProt P25101)
T5 sequence (P25101 whole entry): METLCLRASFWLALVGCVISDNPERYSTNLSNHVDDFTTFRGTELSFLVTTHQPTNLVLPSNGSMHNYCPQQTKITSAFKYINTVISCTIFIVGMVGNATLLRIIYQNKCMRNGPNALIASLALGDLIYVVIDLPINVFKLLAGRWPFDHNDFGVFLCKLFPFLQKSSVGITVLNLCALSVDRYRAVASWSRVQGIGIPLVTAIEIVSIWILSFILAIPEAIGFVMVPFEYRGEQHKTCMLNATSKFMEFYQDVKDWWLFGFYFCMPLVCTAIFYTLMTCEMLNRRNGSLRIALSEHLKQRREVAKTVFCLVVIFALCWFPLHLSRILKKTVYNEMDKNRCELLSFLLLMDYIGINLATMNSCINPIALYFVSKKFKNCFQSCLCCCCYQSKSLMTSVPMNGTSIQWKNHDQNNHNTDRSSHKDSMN

[10] = molecular target: 5-hydroxytryptamine receptor 2A (Homo sapiens, UniProt P28223); format: functional, cell-based
5-hydroxytryptamine receptor 2A, sequence (P28223 whole entry): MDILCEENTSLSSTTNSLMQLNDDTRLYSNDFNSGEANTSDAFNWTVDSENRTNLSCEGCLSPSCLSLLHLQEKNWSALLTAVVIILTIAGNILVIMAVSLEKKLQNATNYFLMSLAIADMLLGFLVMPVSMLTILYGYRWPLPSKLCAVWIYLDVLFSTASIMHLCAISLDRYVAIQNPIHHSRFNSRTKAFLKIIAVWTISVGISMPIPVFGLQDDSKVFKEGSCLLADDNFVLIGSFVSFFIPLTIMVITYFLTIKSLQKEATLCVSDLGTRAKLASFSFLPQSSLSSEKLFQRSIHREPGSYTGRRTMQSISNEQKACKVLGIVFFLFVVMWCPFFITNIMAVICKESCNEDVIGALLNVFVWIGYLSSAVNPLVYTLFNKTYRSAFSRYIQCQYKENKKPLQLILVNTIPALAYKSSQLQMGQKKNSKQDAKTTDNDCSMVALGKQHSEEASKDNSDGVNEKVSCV

[11] = molecular target: T2, Progesterone receptor; format: functional
Further: assay procedure not described here.

SMILES | AC50 [1] [µM] | AC50 [2] [µM] | AC50 [3] [µM] | AC50 [4] [µM] | AC50 [5] [µM] | AC50 [6] [µM] | AC50 [7] [µM] | AC50 [8] [µM] | AC50 [9] [µM] | AC50 [10] [µM] | AC50 [11] [µM]
COc1cccc2c1C(=O)c1c(O)c3c(c(O)c1C2=O)C[C@@](O)(C(=O)CO)C[C@@H]3O[C@H]1C[C@H](N)[C@H](O[C@@H]2CCCCO2)[C@H](C)O1 [PIRARUBICIN] | > 1 | > 30 | > 30 | > 30 | > 30 | > 1 | – | – | – | – | –
CCOC(=O)Nc1ccc(NCc2ccc(F)cc2)nc1N [FLUPIRTINE] | – | – | – | – | – | – | > 30 | > 30 | > 30 | > 30 | > 30
CC(C)Nc1cccnc1N1CCN(C(=O)c2cc3cc(NS(C)(=O)=O)ccc3[nH]2)CC1 [DELAVIRDINE] | > 30 | > 30 | > 30 | > 30 | > 30 | > 30 | – | – | – | – | –
N[C@@H](Cc1cc(I)c(Oc2cc(I)c(O)c(I)c2)c(I)c1)C(=O)O [LEVOTHYROXINE] | – | – | – | – | – | – | > 30 | > 10 | > 30 | > 30 | > 30
CN(C)CCc1c[nH]c2ccc(CS(=O)(=O)N3CCCC3)cc12 [ALMOTRIPTAN] | – | – | – | – | – | – | > 30 | > 30 | > 30 | 13 | > 30
CO[C@@]1(NC(=O)C(C(=O)O)c2ccc(O)cc2)C(=O)N2C(C(=O)O)=C(CSc3nnnn3C)CO[C@@H]21 (some centres not stated) [MOXALACTAM] | > 30 | > 30 | > 30 | > 30 | > 30 | > 30 | – | – | – | – | –
CC(C)/N=c1\cc2n(-c3ccc(Cl)cc3)c3ccccc3nc-2cc1Nc1ccc(Cl)cc1 [CLOFAZIMINE] | – | – | – | – | – | – | > 30 | > 30 | > 30 | > 30 | > 30
Cc1cccc(C)c1NC(=O)c1cc(S(N)(=O)=O)c(Cl)cc1O [XIPAMIDE] | > 30 | > 30 | > 30 | > 30 | > 30 | > 30 | – | – | – | – | –
C=CCOc1ccc(CC(=O)O)cc1Cl [ALCLOFENAC] | > 30 | > 30 | > 30 | > 30 | > 30 | > 30 | – | – | – | – | –
Cc1ccc(C(C)C)c(O)c1 [THYMOL] | > 30 | > 30 | > 30 | > 30 | > 30 | > 30 | – | – | – | – | –
N#Cc1ccnc(N2C(=O)CC[C@H]2C(=O)N(c2cncc(F)c2)[C@H](C(=O)NC2CC(F)(F)C2)c2ccccc2Cl)c1 [IVOSIDENIB] | > 30 | > 30 | > 30 | > 30 | > 30 | > 30 | – | – | – | – | –
C[C@@H](CN1CC(=O)NC(=O)C1)N1CC(=O)NC(=O)C1 [DEXRAZOXANE] | > 30 | > 30 | > 30 | > 30 | > 30 | > 30 | – | – | – | – | –
O=c1[nH]c2ccccc2n1CCN1CCN(c2cccc(C(F)(F)F)c2)CC1 [FLIBANSERIN] | > 30 | > 30 | > 30 | > 30 | 17.7 | > 30 | – | – | – | – | –
N=C(N)NCC1COc2ccccc2O1 (configuration not stated) [GUANOXAN] | > 30 | > 30 | > 30 | > 30 | > 30 | > 30 | – | – | – | – | –
CC(C)(Oc1ccc(Cl)cc1)C(=O)NC(=O)NCN1CCOCC1 [PLAFIBRIDE] | > 30 | > 30 | > 30 | > 30 | > 30 | > 30 | – | – | – | – | –
C[C@]12CC[C@@H]3c4ccc(OC(=O)N(CCCl)CCCl)cc4CC[C@H]3[C@@H]1CC[C@@H]2OP(=O)(O)O [ESTRAMUSTINE PHOSPHATE] | > 30 | > 30 | > 30 | > 30 | > 30 | > 30 | – | – | – | – | –
CC#CC(=O)N1CCC[C@H]1c1nc(-c2ccc(C(=O)Nc3ccccn3)cc2)c2c(N)nccn12 [ACALABRUTINIB] | > 30 | > 30 | > 30 | > 30 | > 30 | > 30 | – | – | – | – | –
CC1=C(C/C=C(\C)CCC[C@H](C)CCC[C@H](C)CCCC(C)C)C(=O)c2ccccc2C1=O [PHYTONADIONE] | > 30 | > 30 | > 30 | > 30 | > 30 | > 30 | – | – | – | – | –
CN1CCC(N(Cc2cccs2)c2ccccc2)CC1 [THENALIDINE] | > 30 | > 30 | > 30 | > 30 | 18 | > 30 | – | – | – | – | –
CCCCCCO[C@@H](C)c1cccc(-c2csc(NC(=O)c3cc(Cl)c(/C=C(\C)C(=O)O)c(Cl)c3)n2)c1OC [LUSUTROMBOPAG] | > 30 | 15.1 | > 30 | 9.34 | > 30 | > 30 | – | – | – | – | –
OC[C@H]1NC[C@H](O)[C@@H](O)[C@H]1O | > 30 | > 30 | > 30 | > 30 | > 30 | > 30 | – | – | – | – | –
CC[N+](CC)(CCNC(=O)C(=O)NCC[N+](CC)(CC)Cc1ccccc1Cl)Cc1ccccc1Cl [AMBENONIUM] | – | – | – | – | – | – | > 30 | > 30 | > 30 | > 30 | > 30
CCCCCCCC/C=C\CCCCCCCC(=O)O [OLEIC ACID] | > 30 | > 30 | > 30 | – | > 30 | > 30 | – | – | – | – | –
O=C(O)[C@@H](S)[C@@H](S)C(=O)O | – | > 30 | > 30 | > 30 | > 30 | > 30 | – | – | – | – | –
